Test system: bacteria in the urine sample
Assay: Gram classification by treatment impact in microfluidic device (FIGS. 10 to 13)
Type: cell-based, Escherichia coli
Conditions: LIN 4 μg/ml and VAN 32 μg/ml at T1=25 min; NaCl 340 mM at 10-22 min
Text: In this embodiment, bacterial cells from a biological sample are exposed to four different treatments (Tr1 to Tr4). […] The combination of LIN/VAN in the first treatment Tr1 is generally effective against gram-positive bacteria but has no or little antibacterial activity against gram-negative bacteria. […] AMC used in the third treatment Tr3 has broad antibacterial activity against both gram-positive and gram-negative bacteria. It, though, generally has slower antibacterial activity against Staphylococcus as compared to against Enterococcus. FOS used in the fourth treatment Tr4 has a broad antibacterial activity against both gram-positive and gram-negative bacteria. It, though, generally has a slower antibacterial activity against Staphylococcus as compared to against Enterococcus. Bacterial cells from the biological sample are preferably exposed to respective treatment in parallel. In this example, a respective impact parameter is determined for each treatment after a respective treatment period (T1 to T5) and then compared to a respective cutoff or threshold value. The respective treatment periods T1 to T5 could be the same but are typically different and adapted to the particular antimicrobial agent or mixture or salt or salt mixture. […] A urine sample was loaded into the microfluidic device 5 and bacterial growth was monitored in the different sets 130 of cell channels. […]

## [Cl-].[Na+] [NaCl, sodium chloride]
  candidate gram classification indicated by treatment: gram negative

Source: US20240425898A1, “BACTERIA CLASSIFICATION AND ANALYSIS” (SYSMEX ASTREGO AB, priority 2023, published 2024)
